Source: US11542255B2, “Sulfonylureas and sulfonylthioureas as NLRP3 inhibitors” (Inflazome Limited, priority 2017, dated 2023)
Structures can show the parent of a compound that is named as a salt.

Tests used:
[1] = target: T1, NLRP3 (Homo sapiens, UniProt Q96P20); assay: THP-1 cells pyroptosis assay (LPS + nigericin, resazurin readout); type: cell-based; design: Seed THP-1 cells (25,000 cells/well) containing 1.0 μg/ml LPS in 40 μl of RPMI medium; host or cells: THP-1 cells; details: NLRP3 inhibitory activity, 1.0 μg/ml LPS, 5 μM nigericin
Experimental: THP-1 cells (ATCC #TIB-202) were grown in RPMI containing L-glutamine (Gibco #11835) supplemented with 1 mM sodium pyruvate (Sigma #S8636) and penicillin (100 units/ml)/streptomycin (0.1 mg/ml) (Sigma #P4333) in 10% Fetal Bovine Serum (FBS) (Sigma #F0804). The cells were routinely passaged and grown to confluency (˜10^6 cells/ml). On the day of the experiment, THP-1 cells were harvested and resuspended into RPMI medium (without FBS). The cells were then counted and viability (>90%) checked by Trypan blue (Sigma #T8154). Appropriate dilutions were made to give a concentration of 625,000 cells/ml. To this diluted cell solution was added LPS (Sigma #L4524) to give a […] Final Assay Concentration (FAC). 40 μl of the final preparation was aliquoted into each well of a 96-well plate. The plate thus prepared was used for compound screening.
The following method step-by-step assay was followed for compound screening. • 1. Seed THP-1 cells (25,000 cells/well) containing 1.0 μg/ml LPS in 40 μl of RPMI medium (without FBS) in 96-well, black walled, clear bottom cell culture plates coated with poly-D-lysine (VWR #734-0317) • 2. Add 5 μl compound (8 points half-log dilution, with 10 μM top dose) or vehicle (DMSO 0.1% FAC) to the appropriate wells • 3. Incubate for 3 hrs at 37° C. in 5% CO2 • 4. Add 5 μl nigericin (Sigma #N7143) (FAC 5 μM) to all wells • 5. Incubate for 1 hr at 37° C. and 5% CO2 • 6. At the end of the incubation period, spin plates at 300×g for 3 mins and remove supernatant • 7. Then add 50 μl of resazurin (Sigma #R7017) (FAC 100 μM resazurin in RPMI medium without FBS) and incubate plates for a further 1-2 hrs at 37° C. and 5% CO2 • 8. Plates were read in an Envision reader at Ex 560 nm and Em 590 nm • 9. IC50 data is fitted to a non-linear regression equation (log inhibitor vs response-variable slope 4-parameters)

[2] = target: T1, NLRP3; assay: Human whole blood IL1β release assay (LPS + nigericin, AlphaLisa IL-1β); type: cell-based; design: Human whole blood in Li-heparin tubes was obtained from healthy donors from a volunteer donor panel; from tissue; host or cells: human whole blood from healthy donors; details: NLRP3 inhibitory activity, 1 μg/ml LPS, 10 μM nigericin, IL-1β release, read-out: HWB IC50
Experimental: For systemic delivery, the ability to inhibit NLRP3 when the compounds are present within the bloodstream is of great importance. For this reason, the NLRP3 inhibitory activity of a number of compounds in human whole blood was investigated in accordance with the following protocol.
Human whole blood in Li-heparin tubes was obtained from healthy donors from a volunteer donor panel. • 1. Plate out 80 μl of whole blood containing 1 μg/ml of LPS in 96-well, clear bottom cell culture plate (Corning #3585) • 2. Add 10 μl compound (8 points half-log dilution with 10 μM top dose) or vehicle (DMSO 0.1% FAC) to the appropriate wells • 3. Incubate for 3 hrs at 37° C., 5% CO2 • 4. Add 10 μl Nigericin (Sigma #N7143) (10 μM FAC) to all wells • 5. Incubate for 1 hr at 37° C., 5% CO2 • 6. At the end of the incubation period, spin plates at 300×g for 5 mins to pellet cells and remove 20 μl of supernatant and add to 96-well v-bottom plates for IL-1β analysis (note: these plates containing the supernatants can be stored at −80° C. to be analysed at a later date) • 7. IL-1β was measured according to the manufacturer protocol (Perkin Elmer-AlphaLisa IL-1β Kit AL220F-5000) • 8. IC50 data is fitted to a non-linear regression equation (log inhibitor vs response-variable slope 4-parameters)

T1 sequence (Q96P20 whole entry): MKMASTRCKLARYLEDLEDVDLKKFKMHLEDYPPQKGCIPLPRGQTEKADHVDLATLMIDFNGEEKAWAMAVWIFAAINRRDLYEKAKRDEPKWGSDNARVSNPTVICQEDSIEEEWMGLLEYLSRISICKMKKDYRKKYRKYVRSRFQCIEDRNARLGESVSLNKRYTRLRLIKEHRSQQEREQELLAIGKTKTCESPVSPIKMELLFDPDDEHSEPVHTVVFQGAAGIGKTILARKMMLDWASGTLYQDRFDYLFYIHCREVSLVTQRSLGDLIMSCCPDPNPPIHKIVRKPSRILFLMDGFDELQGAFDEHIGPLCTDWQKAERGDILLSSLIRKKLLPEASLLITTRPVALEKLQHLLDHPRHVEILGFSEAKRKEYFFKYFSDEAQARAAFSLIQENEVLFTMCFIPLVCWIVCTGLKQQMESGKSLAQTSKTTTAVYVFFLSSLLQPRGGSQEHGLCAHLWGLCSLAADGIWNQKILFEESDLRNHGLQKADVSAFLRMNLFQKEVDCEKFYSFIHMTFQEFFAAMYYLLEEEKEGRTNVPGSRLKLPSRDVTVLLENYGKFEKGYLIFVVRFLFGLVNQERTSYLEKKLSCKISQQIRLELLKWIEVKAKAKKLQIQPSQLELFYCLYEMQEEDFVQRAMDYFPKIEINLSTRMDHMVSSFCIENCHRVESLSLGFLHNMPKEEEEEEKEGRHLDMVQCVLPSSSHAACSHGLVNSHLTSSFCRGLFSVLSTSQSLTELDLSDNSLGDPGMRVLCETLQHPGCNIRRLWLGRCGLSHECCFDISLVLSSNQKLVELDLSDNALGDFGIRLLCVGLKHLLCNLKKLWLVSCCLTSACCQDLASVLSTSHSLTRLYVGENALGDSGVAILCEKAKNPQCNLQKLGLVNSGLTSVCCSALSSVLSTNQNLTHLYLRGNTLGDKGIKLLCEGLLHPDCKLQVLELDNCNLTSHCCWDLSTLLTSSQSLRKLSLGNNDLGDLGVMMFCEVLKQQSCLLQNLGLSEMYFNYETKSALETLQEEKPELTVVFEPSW

IC50 [1] [nM]	IC50 [2] [nM]	Compound
40 to 160	3200 to 10000	CC(C)n1nc(S(=O)(=O)NC(=O)Nc2c3c(cc4c2CCC4)CCC3)cc1CN(C)CC(F)F [Example 56, 5-(((2,2-Difluoroethyl)(methyl)amino)methyl)-N-((1,2,3,5,6,7-hexahydro-s-indacen-4-yl)carbamoyl)-1-isopropyl-1H-pyrazole-3-sulfonamide, Sodium Salt]
< 40	< 400	CCn1nc(S(=O)(=O)NC(=O)Nc2c(-c3ccnc(OC)c3)ccc3c2CCC3)cc1CN(C)C [Example 17, 5-((Dimethylamino)methyl)-1-ethyl-N-((5-(2-methoxypyridin-4-yl)-2,3-dihydro-1H-inden-4-yl)carbamoyl)-1H-pyrazole-3-sulfonamide]
40 to 160	400 to 800	CN(C)C(C)(C)c1cc(S(=O)(=O)NC(=O)Nc2c3c(cc4c2CCC4)CCC3)nn1C [Example 34, 5-(2-(Dimethylamino)propan-2-yl)-N-((1,2,3,5,6,7-hexahydro-s-indacen-4-yl)carbamoyl)-1-methyl-1H-pyrazole-3-sulfonamide]
160 to 640	800 to 1600	CN(C)CCc1cc(S(=O)(=O)NC(=O)Nc2c3c(cc4c2CCC4)CCC3)nn1C [Example 59, 5-(2-(Dimethylamino)ethyl)-N-((1,2,3,5,6,7-hexahydro-s-indacen-4-yl)carbamoyl)-1-methyl-1H-pyrazole-3-sulfonamide]
< 40	400 to 800	CC(C)n1nc(S(=O)(=O)NC(=O)Nc2c3c(cc4c2CCC4)CCC3)cc1CN1CCC1 [Example 53, 5-(Azetidin-1-ylmethyl)-N-((1,2,3,5,6,7-hexahydro-s-indacen-4-yl)carbamoyl)-1-isopropyl-1H-pyrazole-3-sulfonamide]
40 to 160	400 to 800	CC1CN(C(C)c2cc(S(=O)(=O)NC(=O)Nc3c4c(cc5c3CCC5)CCC4)nn2C)C1 (stereo not drawn) [Example 29, N-((1,2,3,5,6,7-Hexahydro-s-indacen-4-yl)carbamoyl)-1-methyl-5-(1-(3-methylazetidin-1-yl)ethyl)-1H-pyrazole-3-sulfonamide]
< 40	< 400	CCC(c1cc(S(=O)(=O)NC(=O)Nc2c3c(cc4c2CCC4)CCC3)nn1C)N(C)C (stereo not drawn) [Example 74, 5-(1-(Dimethylamino)propyl)-N-((1,2,3,5,6,7-hexahydro-s-indacen-4-yl)carbamoyl)-1-methyl-1H-pyrazole-3-sulfonamide]
160 to 640	< 400	CC(C)c1cc(F)cc(C(C)C)c1NC(=O)NS(=O)(=O)c1cc(CN(C)CCO)n(C)n1 [Example 116, N-((4-Fluoro-2,6-diisopropylphenyl)carbamoyl)-5-(((2-hydroxyethyl)(methyl)amino)methyl)-1-methyl-1H-pyrazole-3-sulfonamide]
160 to 640	< 400	CCn1nc(S(=O)(=O)NC(=O)Nc2c(C(C)C)cc(F)cc2C(C)C)cc1CN(C)C [Example 51, 5-((Dimethylamino)methyl)-1-ethyl-N-((4-fluoro-2,6-diisopropylphenyl)carbamoyl)-1H-pyrazole-3-sulfonamide]
160 to 640	400 to 800	CC(C)n1nc(S(=O)(=O)NC(=O)Nc2c3c(cc4c2CCC4)CCC3)cc1CCN(C)C [Example 33, 5-(2-(Dimethylamino)ethyl)-N-((1,2,3,5,6,7-hexahydro-s-indacen-4-yl)carbamoyl)-1-isopropyl-1H-pyrazole-3-sulfonamide, Sodium Salt]
< 40	< 400	COc1cc(-c2ccc3c(c2NC(=O)NS(=O)(=O)c2cc(C(=O)N(C)C)n(C)n2)CCC3)ccn1 [Example 177, 3-(N-((5-(2-Methoxypyridin-4-yl)-2,3-dihydro-1H-inden-4-yl)carbamoyl)sulfamoyl)-N,N,1-trimethyl-1H-pyrazole-5-carboxamide, sodium Salt]
< 40	< 400	CCC(c1cc(S(=O)(=O)NC(=O)Nc2c(C(C)C)cc(F)cc2C(C)C)nn1C)N(C)C (stereo not drawn) [Example 65, 5-(1-(Dimethylamino)propyl)-N-((4-fluoro-2,6-diisopropylphenyl)carbamoyl)-1-methyl-1H-pyrazole-3-sulfonamide]
160 to 640	800 to 1600	CC(C)c1cc(S(=O)(=O)NC(=O)Nc2c3c(cc4c2CCC4)CCC3)nn1CCN(C)C [Example 6, 1-(2-(Dimethylamino)ethyl)-N-((1,2,3,5,6,7-hexahydro-s-indacen-4-yl)carbamoyl)-5-isopropyl-1H-pyrazole-3-sulfonamide]
40 to 160	< 400	CC(c1cc(S(=O)(=O)NC(=O)Nc2c3c(cc4c2CCC4)CCC3)nn1C)N1CCC1 (single isomer, unassigned; enantiomer 1) [Example 26, 5-(1-(Azetidin-1-yl)ethyl)-N-((1,2,3,5,6,7-hexahydro-s-indacen-4-yl)carbamoyl)-1-methyl-1H-pyrazole-3-sulfonamide, Sodium Salt (Enantiomer 1)]
40 to 160	400 to 800	CN(C)Cc1cc(S(=O)(=O)NC(=O)Nc2c3c(cc4c2CCC4)CCC3)nn1CC(C)(C)C [Example 31, 5-((Dimethylamino)methyl)-N-((1,2,3,5,6,7-hexahydro-s-indacen-4-yl)carbamoyl)-1-neopentyl-1H-pyrazole-3-sulfonamide]
160 to 640	400 to 800	CC(C)c1cc(F)cc(-c2cccnc2)c1NC(=O)NS(=O)(=O)c1cc(CN(C)C)n(C(C)C)n1 [Example 54, 5-((Dimethylamino)methyl)-N-((4-fluoro-2-isopropyl-6-(pyridin-3-yl)phenyl)carbamoyl)-1-isopropyl-1H-pyrazole-3-sulfonamide]
40 to 160	< 400	CC(C)c1cc(F)cc(-c2cccnc2)c1NC(=O)NS(=O)(=O)c1cc(CN(C)C)n(C)n1 [Example 41, 5-((Dimethylamino)methyl)-N-((4-fluoro-2-isopropyl-6-(pyridin-3-yl)phenyl)carbamoyl)-1-methyl-1H-pyrazole-3-sulfonamide]
2560 to 10000	3200 to 10000	COCCN(CCOC)C(=O)c1cc(S(=O)(=O)NC(=O)Nc2c(-c3ccnc(OC(C)C)c3)cc(F)cc2C(C)C)nn1C [Example 174, 3-(N-((4-Fluoro-2-(2-isopropoxypyridin-4-yl)-6-isopropyl-phenyl)carbamoyl)sulfamoyl)-N,N-bis(2-methoxyethyl)-1-methyl-1H-pyrazole-5-carboxamide, sodium salt]
40 to 160	400 to 800	CNCc1cc(S(=O)(=O)NC(=O)Nc2c3c(cc4c2CCC4)CCC3)nn1C [Example 67, N-((1,2,3,5,6,7-Hexahydro-s-indacen-4-yl)carbamoyl)-1-methyl-5-((methylamino)methyl)-1H-pyrazole-3-sulfonamide]
< 40	< 400	CCC(c1cc(S(=O)(=O)NC(=O)Nc2c3c(cc4c2CCC4)CCC3)nn1C1CC1)N1CCC1 (stereo not drawn) [Example 23, 5-(1-(Azetidin-1-yl)propyl)-1-cyclopropyl-N-((1,2,3,5,6,7-hexahydro-s-indacen-4-yl)carbamoyl)-1H-pyrazole-3-sulfonamide]
40 to 160	3200 to 10000	CC(C)n1nc(S(=O)(=O)NC(=O)Nc2c3c(cc4c2CCC4)CCC3)cc1CN(C)CC(F)(F)F [Example 96, N-((1,2,3,5,6,7-Hexahydro-s-indacen-4-yl)carbamoyl)-1-isopropyl-5-((methyl(2,2,2-trifluoroethyl)amino)methyl)-1H-pyrazole-3-sulfonamide]
